The values that follow come from patent US10519140B2, “Indolin-2-one derivatives” (Hoffmann-La Roche Inc., priority 2015, dated 2019).

In general, IC50 refers to the midpoint of a concentration-inhibition curve. Higher therefore signals lower potency.

For the assay, the target named is T1, mouse ENT-1 transporter (Mus musculus, UniProt Q9JIM1).
T1 construct: expressed in transfected cells
T1 sequence (Q9JIM1 1-460): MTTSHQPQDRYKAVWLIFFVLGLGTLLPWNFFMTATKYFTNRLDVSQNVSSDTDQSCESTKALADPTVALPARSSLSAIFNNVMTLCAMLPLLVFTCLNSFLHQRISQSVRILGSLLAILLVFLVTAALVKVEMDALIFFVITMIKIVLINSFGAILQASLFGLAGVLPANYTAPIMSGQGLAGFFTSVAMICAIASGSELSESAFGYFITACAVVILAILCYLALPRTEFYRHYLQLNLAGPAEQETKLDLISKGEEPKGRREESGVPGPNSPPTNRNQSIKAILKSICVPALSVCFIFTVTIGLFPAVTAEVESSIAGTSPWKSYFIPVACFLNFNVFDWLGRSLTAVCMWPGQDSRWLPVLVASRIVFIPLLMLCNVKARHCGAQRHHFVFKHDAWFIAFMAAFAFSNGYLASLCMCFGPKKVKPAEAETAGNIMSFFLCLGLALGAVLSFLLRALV
Nature of the assay: Adenosine transport activity (ENT1, [3H]-adenosine uptake inhibition). The class given is cell-based. The conditions noted are these: stable cells expressing mouse ENT-1; [2,8-3H]-adenosine 6 nM, 20 min. The procedure:
To measure adenosine transport activity of ENT-1 mammalian cells, stable cells expressing the mouse ENT-1 transporter were plated on day 1 in 96-well culture plates at the density of 60,000 cells/well, in complete DMEM/F12 medium supplemented with glutamax, 10% FBS and 10 μg/ml puromycin. On day 2, the medium was aspirated and the cells were washed twice with uptake buffer (10 mM Hepes-Tris, pH 7.4 containing 150 mM NaCl, 1 mM CaCl2, 2.5 mM KCl, 2.5 mM MgSO4, 10 mM D-glucose) (UB). For inhibition experiments, cells were then incubated at RT with various concentrations of compounds with 1% DMSO final. Non-specific uptake was defined in the presence of 10 μM S-(4-Nitrobenzyl)-6-thioinosine (NBTI, Sigma Cat #N2255). A solution containing [2,8-^3H]-adenosine 6 nM (40 Ci/mmol, American Radiolabeled chemicals Inc, Cat #ART 0287A) was then immediately added to the wells. The plates were then incubated for 20 min with gentle shaking and the reaction was stopped by aspiration of the mixture and washing (three times) with ice-cold UB. The cells were lysed by the addition of scintillation liquid, shaken 3 hours and the radioactivity in the cells was estimated using a microplates scintillation counter (TopCount NXT, Packard).

Turning to `Cc1ncc(-c2ccc3c(c2)N(c2cnc4c(n2)[nH]c(=O)n4C)C(=O)C3(C)C)cn1` [Example 35, 5-(3,3-Dimethyl-6-(2-methylpyrimidin-5-yl)-2-oxoindolin-1-yl)-1-methyl-1H-imidazo[4,5-b]pyrazin-2(3H)-one], half-maximal inhibition (IC50) required 496 nM.
The result for `Cc1ncc(-c2ccc3c(c2)N(c2cnc4[nH]c(=O)[nH]c4n2)C(=O)C3(C)C)cn1` [Example 36, 5-(3,3-Dimethyl-6-(2-methylpyrimidin-5-yl)-2-oxoindolin-1-yl)-1H-imidazo[4,5-b]pyrazin-2(3H)-one] reads 375 nM.
The compound `Cc1ncc(-c2ccc3c(c2)N(c2ccc4c(n2)NC(=O)C4(C)C)C(=O)C3(C)C)cn1` [Example 37, 6-(3,3-Dimethyl-6-(2-methylpyrimidin-5-yl)-2-oxoindolin-1-yl)-3,3-dimethyl-1H-pyrrolo[2,3-b]pyridin-2(3H)-one] had an IC50 of 6.7 nM.
Consider `Cc1ncc(-c2ccc3c(c2)N(c2cnc4c(c2)NC(=O)CO4)C(=O)C3(C)C)cn1` [Example 38, 7-(3,3-Dimethyl-6-(2-methylpyrimidin-5-yl)-2-oxoindolin-1-yl)-1H-pyrido[2,3-b][1,4]oxazin-2(3H)-one], for which the half-inhibitory concentration (IC50) came out at 61.4 nM.
Compound `Cc1ncc(-c2ccc3c(c2)N(c2cc4c(cn2)C(C)(C)C(=O)N4C2CC2)C(=O)C3(C)C)cn1` [Example 40, 1-Cyclopropyl-6-(3,3-dimethyl-6-(2-methylpyrimidin-5-yl)-2-oxoindolin-1-yl)-3,3-dimethyl-1H-pyrrolo [3,2-c]pyridin-2(3H)-one] yielded an IC50 of 493 nM.
The result for `Cc1ncc(-c2ccc3c(c2)N(c2ccc4c(c2)N(C)C(=O)C4(C)C)C(=O)C3(C)C)cn1` [Example 41, 1′,3,3,3′,3′-Pentamethyl-6-(2-methylpyrimidin-5-yl)-[1,6′-biindoline]-2,2′-dione] reads 114 nM; that for `COc1ccc(CN2C(=O)C(C)(C)c3ccc(N4C(=O)C(C)(C)c5ccc(-c6cnc(C)nc6)cc54)cc32)cc1` [Example 42, 1′-(4-Methoxybenzyl)-3,3,3′,3′-tetramethyl-6-(2-methylpyrimidin-5-yl)-[1,6′-biindoline]-2,2′-dione], 193 nM.
The compound `Cc1ncc(-c2ccc3c(c2)N(c2cc4c(cn2)C(C)(C)C(=O)N4)C(=O)C3(C)C)cn1` [Example 43, 6-(3,3-Dimethyl-6-(2-methylpyrimidin-5-yl)-2-oxoindolin-1-yl)-3,3-dimethyl-1H-pyrrolo[3,2-c]pyridin-2(3H)-one] returned an IC50 of 385 nM.
The compound `Cc1ncc(-c2ccc3c(c2)N(c2ccc4c(c2)NC(=O)C4(C)C)C(=O)C3(C)C)cn1` [Example 44, 3,3,3′,3′-Tetramethyl-6-(2-methylpyrimidin-5-yl)-[1,6′-biindoline]-2,2′-dione] yielded an IC50 of 128 nM.
For the compound `Cc1ncc(-c2ccc3c(c2)N(c2ccc4oc(C)nc4n2)C(=O)C3(C)C)cn1` [Example 45, 3,3-Dimethyl-1-(2-methyloxazolo[4,5-b]pyridin-5-yl)-6-(2-methylpyrimidin-5-yl)indolin-2-one], the midpoint of inhibition, the IC50, lay at 593 nM.
Turning to `Cc1ncc(-c2ccc3c(c2)N(c2ccc4c(c2F)N(C)C(=O)C4(C)C)C(=O)C3(C)C)cn1` [Example 46, 7′-Fluoro-1′,3,3,3′,3′-pentamethyl-6-(2-methylpyrimidin-5-yl)-[1,6′-biindoline]-2,2′-dione], the IC50 was 244 nM.
`Cc1ncc(-c2ccc3c(c2)N(c2ccc4nnn(C)c4c2)C(=O)C3(C)C)cn1` [Example 48, 3,3-Dimethyl-1-(1-methyl-1H-benzo[d][1,2,3]triazol-6-yl)-6-(2-methylpyrimidin-5-yl)indolin-2-one] displayed an IC50 of 184 nM.
Then `Cc1ncc(-c2ccc3c(c2)N(c2cnc(N4CCOCC4)cn2)C(=O)C3(C)C)cn1` [Example 49, 3,3-Dimethyl-6-(2-methylpyrimidin-5-yl)-1-(5-morpholinopyrazin-2-yl)indolin-2-one], with 415 nM.
For the compound `Cc1ncc(-c2ccc3c(c2)N(c2cnc(N4[C@@H]5COC[C@H]4C5)cn2)C(=O)C3(C)C)cn1` [Example 51, 1-(5-((1R,5S)-3-Oxa-6-azabicyclo[3.1.1]heptan-6-yl)pyrazin-2-yl)-3,3-dimethyl-6-(2-methylpyrimidin-5-yl)indolin-2-one], the IC50 was determined as 227 nM.
Then `Cc1ncc(-c2ccc3c(c2)N(c2cnc(NCCO)cn2)C(=O)C3(C)C)cn1` [Example 52, 1-(5-((2-Hydroxyethyl)amino)pyrazin-2-yl)-3,3-dimethyl-6-(2-methylpyrimidin-5-yl)indolin-2-one], with 239 nM; and `Cc1ncc(-c2ccc3c(c2)N(c2cc4c(nn2)N(C2CC2)C(=O)C4(C)C)C(=O)C3(C)C)cn1` [Example 53, 7-Cyclopropyl-3-(3,3-dimethyl-6-(2-methylpyrimidin-5-yl)-2-oxoindolin-1-yl)-5,5-dimethyl-5H-pyrrolo[2,3-c]pyridazin-6(7H)-one], with 993 nM; and `Cc1ncc(-c2ccc3c(c2)N(c2cncc(N4CC(C)(C)OC4=O)n2)C(=O)C3(C)C)cn1` [Example 56, 3-(6-(3,3-Dimethyl-6-(2-methylpyrimidin-5-yl)-2-oxoindolin-1-yl)pyrazin-2-yl)-5,5-dimethyloxazolidin-2-one], with 202 nM.
`Cc1ncc(-c2ccc3c(c2)N(c2cncc(N4CCCS4(=O)=O)n2)C(=O)C3(C)C)cn1` [Example 57, 1-(6-(1,1-Dioxidoisothiazolidin-2-yl)pyrazin-2-yl)-3,3-dimethyl-6-(2-methylpyrimidin-5-yl)indolin-2-one] showed an IC50 of 60.8 nM.
On to `Cc1ncc(-c2ccc3c(c2)N(c2ccc4cc[nH]c4n2)C(=O)C3(C)C)cn1` [Example 58, 3,3-Dimethyl-6-(2-methylpyrimidin-5-yl)-1-(1H-pyrrolo [2,3-b]pyridin-6-yl)indolin-2-one], for which the IC50 came to 243 nM.
`Cc1ncc(-c2ccc3c(c2)N(c2ccc4c(c2)N(C2COC2)C(=O)C4(C)C)C(=O)C3(C)C)cn1` [Example 59, 3,3,3′,3′-Tetramethyl-6-(2-methylpyrimidin-5-yl)-1′-(oxetan-3-yl)-[1,6′-biindoline]-2,2′-dione] yielded a concentration for half-maximal inhibition (IC50) of 203 nM.
For `Cc1ncc(-c2ccc3c(c2)N(c2ccc4cnn(C)c4c2)C(=O)C3(C)C)cn1` [Example 60, 3,3-Dimethyl-1-(1-methyl-1H-indazol-6-yl)-6-(2-methylpyrimidin-5-yl)indolin-2-one], the IC50 was 37.7 nM.
Turning to `Cc1ncc(-c2ccc3c(c2)N(c2ccc4c(C)nn(C)c4n2)C(=O)C3(C)C)cn1` [Example 61, 1-(1,3-Dimethyl-1H-pyrazolo[3,4-b]pyridin-6-yl)-3,3-dimethyl-6-(2-methylpyrimidin-5-yl)indolin-2-one], half-maximal inhibition (IC50) was put at 202 nM.
Then `Cc1ncc(-c2ccc3c(c2)N(c2ccc4ccn(C)c4c2)C(=O)C3(C)C)cn1` [Example 62, 3,3-Dimethyl-1-(1-methyl-1H-indol-6-yl)-6-(2-methylpyrimidin-5-yl)indolin-2-one], with 428 nM.
